Test results as given in patent publication US20240343828A1, “SPINK1 AS A TARGET FOR THERAPEUTIC INTERVENTION IN LUNG DISEASES” (Northwestern University, priority 2023, published 2024).

Columns and labels:
[1] = system: fibroblasts; assay: In vitro fibroblast gene expression with Spink1 incubation; format: cell-based; settings: different Spink1 concentrations, 24 hours
Description: Applicant performed an in vitro experiment to further validate the functional role of SPINK1 in mediating fibroblasts and aSMA+ stromal cells. Applicant incubated fibroblasts with different concentration of recombinant mouse Spink1 protein for 24 hours and tested the gene expression level. […] However, the expression level of aSMA was elevated in response to Spink1 treatment (FIG. 23A). This implied that Spink1 could drive the differentiation of fibroblast toward aSMA+ stromal cells.

[2] = system: mouse lung; assay: Sircol assay of collagen content; format: in vivo
From the text: To further understand the impact of Spink1 on lung fibrosis, Applicant performed the molecular experiment to mutate Spink amino acid sequence. Applicant generated two Spink1 variants (protein 2: R19Y and protein 3: R19A) to denote the ones with activity preserved (protein 2: R19Y) and activity ablation (protein 3: R19A). Applicant used these two variants, together with Spink1 wild type protein and PBS, to conduct the animal experiments using healthy mice (FIG. 15).

[3] = system: mouse lung; assay: scRNA-seq analysis of lung tissues from the animal experiment; format: in vivo
From the text: Using the lung tissues collected from our animal experiment, Applicant performed the scRNA-seq analysis and identified 36 different cell types within epithelial, endothelial, stromal and immune compartments (FIG. 17A).
Since AT2s are the fibrosis driver^21,23, Applicant performed the differential gene expression between bleomycin vs combo treatment to identify the potential genes that are invoked by Spink1.

[4] = system: mouse lung; assay: Trichome staining of mouse lung; format: in vivo; settings: Spink1-treated mouse lungs
Description: (§1) The H&E histology experiment and trichome staining assay were conducted in histology core at northwestern university.

[5] = system: mouse lung; assay: H&E staining of mouse lung; format: in vivo; settings: Spink1-treated mouse lungs
Description: as §1

[6] = system: mouse; settings: mice with bleomycin pre-treatment
Description: Two sets of experiment were set up: one set with bleomycin pretreatment and the other without bleomycin pretreatment(FIG. 10). Applicant labeled as the groups as: PBS, recombinant Spink1 protein, bleomycin and the combo of bleomycin and recombinant Spink1 protein (the last two groups are the one with bleomycin pretreatment).
For experiment one, Applicant have four groups as illustrated in FIG. 10. Intrathecal administration was used in this study and 20 ug recombinant protein was injected each time. For the group without bleomycin pretreatment, the animals were injected every third day until they were killed at day 22. For the group with bleomycin pretreatment, the animals were pretreated with bleomycin and then the first dose of recombinant Spink1 protein was injected at day 14 after the bleomycin pretreatment. Another 4 doses were given at day 21, day 24, day 27 and day 30. The animals were killed at day 34 and the tissues were harvested and frozen/fixed for further analysis.

[7] = system: fibroblasts; assay: Fibroblast proliferation with Spink1 incubation; format: cell-based
Description: FIGS. 23A-23C: In vitro experiment to validate the functional role of Spink1 in mediating stromal cell activity. Gene expression changes in fibroblasts with the incubation of different concentration of Spink1 protein (FIG. 23A). The proliferation rate of fibroblasts with the incubation of Spink1 (FIG. 23B). The proliferation rate was calculated as the difference between end point and start point, followed by the division of start point value. Zero proliferation rate indicates no proliferation is detected. The changes of aSMA gene in fibroblasts with the incubation of Spink1 and EGFR inhibitor of AG1468 (FIG. 23C).
Applicant also tested the proliferation activity of fibroblast with the incubation of Spink1. […] Furthermore, Applicant hypothesized that the differentiation of fibroblast toward aSMA+ cells could be EGFR pathway dependent.

[8] = pathway enrichment, PBS vs Spink1 treatment

In the case of “Spink1: recombinant mouse Spink1 (Spink3) protein, homologue of human SPINK1, Serine protease inhibitor Kazal-type 1 (AKVTGKEASCHDAVAGCPRIYDPVCGTDGITYANECVLCFENRKRIEPVLIRKGGPC; UniProt P09036 24-80, looked up)”, the “expression level of Col1a1” value [1] is reported as “not significantly changed”, the “expression level of Fibronectin” value [1] is reported as “not significantly changed” and the “expression level of aSMA” value [1] is reported as “elevated”. The “collagen accumulation (Sircol)” value ([2]; healthy animals, no bleomycin pretreatment) was “can induce the collagen accumulation”, the “collagen content (Sircol)” value ([2]; mice with Spink1 treatment, 20 ug per injection) was “accumulative collagen content” and the “gene set "Negative regulation of fibroblast proliferation" (GSEA)” value ([3]; AT2, combo vs bleomycin) was “induces the down-regulation”. For the same substance, the “phagosome maturation gene set (GSEA)” value ([3]; AT2, combo vs bleomycin) was “significantly down-regulated”, the “expression level of Cdc42” value ([3]; mouse treated with Spink1) was “significantly decreased expression level” and the “apoptosis of aSMA+ cells” value [3, 8] was “arrested the apoptosis of aSMA+ cells”. The “wound healing pathway in fibroblasts” value [3, 8] was “downregulated”, the “expression level of Ftl1” value ([3]; regardless of the bleomycin pretreatment) was “seems to vanish” and the “collagen deposition (trichome staining)” value [4] was “high level of collagen accumulated”. The “alveolar damage and immune cell infiltration (H&E)” value [5] was “notable alveolar damage and immune cell infiltration”, the body weight change [6] was “induce weight loss” and the “proliferation rate of fibroblast” value ([7]; 24 hr Spink1 incubation) was “high proliferation rate”. The “proliferation rate of fibroblast” value ([7]; 48 hr incubation) was “increased rate disappears”.

With bleomycin [reference compound] the “Cthrc1+ fibroblasts in stromal compartment” value ([3]; mouse lung scRNA-seq) was “induces the overproduction of Cthrc1^+ fibroblasts”.

For “protein 3: R19A: Spink1 variant R19A with activity ablation (AKVTGKEASCHDAVAGCPAIYDPVCGTDGITYANECVLCFENRKRIEPVLIRKGGPC; UniProt P09036 24-80, looked up, variant R19A)”, the “collagen accumulation (Sircol), Spink1 variants” value ([2]; healthy mice, 6 doses, compared with wild type Spink1 and PBS) was “fails to induce collagen accumulation”.
